Experimental data taken from PubChem BioAssay AID248 (DTP/NCI, 2004).
“And” between values parts separate entries of the source, which are not always exact repeats. Equal entries are not always repeated. Toxic doses and inconclusive results are not listed. No stated cut-off is given here; in the data, active means T/C of 150% or more; inactive means T/C below 125%.

Test system: L1210 leukemia ip in BDF1 mice, survival T/C
Test: NCI In Vivo Anticancer Drug Screen. Data for tumor model L1210 Leukemia (intraperitoneal) in B6D2F1 (BDF1) mice
Details: endpoint: mean survival time, higher = longer survival
Method in brief: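 Tumor was transplanted into mice, which were then dosed with test compound or vehicle alone. Survival was recorded for each group, and the treated figure was expressed relative to the control figure.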

[1] = dose: 50.0 mg/kg/injection, schedule: Q01DX009 (ip), vehicle: saline
[2] = dose: 100.0 mg/kg/injection, schedule: Q01DX001 (ip), vehicle: other
[3] = dose: 100.0 mg/kg/injection, schedule: Q01DX009 (ip), vehicle: saline
[4] = dose: 100.0 mg/kg/injection, schedule: Q04DX003 (ip), vehicle: saline
[5] = dose: 200.0 mg/kg/injection, schedule: Q01DX001 (ip), vehicle: other
[6] = dose: 200.0 mg/kg/injection, schedule: Q01DX009 (ip), vehicle: saline
[7] = dose: 200.0 mg/kg/injection, schedule: Q04DX003 (ip), vehicle: saline
[8] = dose: 400.0 mg/kg/injection, schedule: Q01DX001 (ip), vehicle: other
[9] = dose: 100.0 mg/kg/injection, schedule: Q01DX001 (ip), vehicle: saline
[10] = dose: 200.0 mg/kg/injection, schedule: Q01DX001 (ip), vehicle: saline
[11] = dose: 400.0 mg/kg/injection, schedule: Q01DX001 (ip), vehicle: saline
[12] = dose: 50.0 mg/kg/injection, schedule: Q01DX001 (ip), vehicle: other
[13] = dose: 100.0 mg/kg/injection, schedule: Q04DX003 (ip), vehicle: saline with Tween-80
[14] = dose: 200.0 mg/kg/injection, schedule: Q04DX003 (ip), vehicle: saline with Tween-80
[15] = dose: 400.0 mg/kg/injection, schedule: Q04DX003 (ip), vehicle: saline with Tween-80

Measured: T/C

CCCCCCC(=O)NC1=C(N2CC2)C(=O)C(NC(=O)CCCCCC)=C(N2CC2)C1=O
inactive: dose: 25.0 mg/kg/injection, schedule: Q01DX009 (ip), vehicle: saline 110 % of control | dose: 45.0 mg/kg/injection, schedule: Q01DX009 (ip), vehicle: other 124 % of control | [1] 122 % of control | dose: 51.0 mg/kg/injection, schedule: Q01DX Z (ip), vehicle: carboxymethylcellulose (CMC) 124 % of control | dose: 51.0 mg/kg/injection, schedule: Q01DX Z (ip), vehicle: methylcellulose (MC) 107 % of control | dose: 65.0 mg/kg/injection, schedule: Q01DX009 (ip), vehicle: other 118 % of control | dose: 66.0 mg/kg/injection, schedule: Q01DX009 (ip), vehicle: Klucel (hydroxypropylcellulose) (HPC) 113 % of control | dose: 76.0 mg/kg/injection, schedule: Q01DX Z (ip), vehicle: methylcellulose (MC) 96 % of control | [2] 96 % of control | dose: 100.0 mg/kg/injection, schedule: Q01DX009 (ip), vehicle: Klucel (hydroxypropylcellulose) (HPC) 101 % of control | [3] 123 % of control | dose: 100.0 mg/kg/injection, schedule: Q04DX003 (ip), vehicle: Klucel (hydroxypropylcellulose) (HPC) 111 % of control | [4] 103 % of control | dose: 115.0 mg/kg/injection, schedule: Q01DX Z (ip), vehicle: carboxymethylcellulose (CMC) 120 % of control | dose: 150.0 mg/kg/injection, schedule: Q01DX009 (ip), vehicle: Klucel (hydroxypropylcellulose) (HPC) 97 % of control and 99 % of control | dose: 172.5 mg/kg/injection, schedule: Q01DX Z (ip), vehicle: carboxymethylcellulose (CMC) 114 % of control | [5] 108 % of control | dose: 200.0 mg/kg/injection, schedule: Q01DX009 (ip), vehicle: other 100 % of control | [6] 94 % of control | [7] 113 % of control | dose: 264.0 mg/kg/injection, schedule: Q04DX003 (ip), vehicle: Klucel (hydroxypropylcellulose) (HPC) 114 % of control | dose: 264.0 mg/kg/injection, schedule: Q04DX003 (ip), vehicle: other 111 % of control | [8] 110 % of control | dose: 400.0 mg/kg/injection, schedule: Q04DX003 (ip), vehicle: Klucel (hydroxypropylcellulose) (HPC) 118 % of control

CN(C)CCCN1Cc2ccccc2C1
inactive: dose: 44.0 mg/kg/injection, schedule: Q01DX Z (ip), vehicle: saline 96 % of control | dose: 66.0 mg/kg/injection, schedule: Q01DX Z (ip), vehicle: saline 100 % of control | dose: 100.0 mg/kg/injection, schedule: Q01DX Z (ip), vehicle: saline 102 % of control

CCOC1C(=O)c2ccccc2CCN1S(=O)(=O)c1ccc(C)cc1 (stereo not drawn)
inactive: [9] 96 % of control | [3] 101 % of control | [10] 100 % of control | [6] 95 % of control | [11] 103 % of control | dose: 400.0 mg/kg/injection, schedule: Q01DX009 (ip), vehicle: saline 94 % of control

N#Cc1cnc(SCC(=O)O)nc1N
inactive: [9] 96 % of control | [10] 102 % of control | [11] 102 % of control

CCCCSCCOC(=O)C1C2CCC(O2)C1C(=O)O (stereo not drawn)
inactive: dose: 12.5 mg/kg/injection, schedule: Q04DX003 (ip), vehicle: Klucel (hydroxypropylcellulose) (HPC) 95 % of control | dose: 25.0 mg/kg/injection, schedule: Q04DX003 (ip), vehicle: Klucel (hydroxypropylcellulose) (HPC) 96 % of control

COc1cccc(/C=C/[N+](=O)[O-])c1OC
inactive: dose: 17.5 mg/kg/injection, schedule: Q01DX009 (ip), vehicle: saline with Tween-80 90 % of control | dose: 35.0 mg/kg/injection, schedule: Q01DX009 (ip), vehicle: saline with Tween-80 101 % of control | [12] 103 % of control | [1] 107 % of control | dose: 70.0 mg/kg/injection, schedule: Q01DX009 (ip), vehicle: saline with Tween-80 95 % of control | [2] 97 % of control | [4] 108 % of control | [5] 103 % of control | [7] 100 % of control

COc1cc2cc3c4cc(OC)c(OC)cc4cc[n+]3c(/C=C\c3ccccc3O)c2cc1OC
inactive: dose: 50.0 mg/kg/injection, schedule: Q01DX001 (ip), vehicle: carboxymethylcellulose (CMC) 106 % of control | dose: 100.0 mg/kg/injection, schedule: Q01DX001 (ip), vehicle: carboxymethylcellulose (CMC) 114 % of control | dose: 100.0 mg/kg/injection, schedule: Q04DX002 (ip), vehicle: carboxymethylcellulose (CMC) 100 % of control and 104 % of control | dose: 100.0 mg/kg/injection, schedule: Q04DX003 (ip), vehicle: carboxymethylcellulose (CMC) 109 % of control and 118 % of control | dose: 200.0 mg/kg/injection, schedule: Q01DX001 (ip), vehicle: carboxymethylcellulose (CMC) 119 % of control | dose: 200.0 mg/kg/injection, schedule: Q04DX002 (ip), vehicle: carboxymethylcellulose (CMC) 100 % of control and 103 % of control | dose: 200.0 mg/kg/injection, schedule: Q04DX003 (ip), vehicle: carboxymethylcellulose (CMC) 110 % of control and 123 % of control | dose: 400.0 mg/kg/injection, schedule: Q01DX001 (ip), vehicle: carboxymethylcellulose (CMC) 116 % of control | dose: 400.0 mg/kg/injection, schedule: Q04DX002 (ip), vehicle: carboxymethylcellulose (CMC) 97 % of control and 104 % of control | dose: 400.0 mg/kg/injection, schedule: Q04DX003 (ip), vehicle: carboxymethylcellulose (CMC) 110 % of control and 115 % of control

CCCCCCCCC/C=N\N=C(N)N
inactive: dose: 15.0 mg/kg/injection, schedule: Q01DX Z (ip), vehicle: carboxymethylcellulose (CMC) 101 % of control | dose: 30.0 mg/kg/injection, schedule: Q01DX Z (ip), vehicle: carboxymethylcellulose (CMC) 108 % of control | dose: 60.0 mg/kg/injection, schedule: Q01DX Z (ip), vehicle: carboxymethylcellulose (CMC) 97 % of control | dose: 120.0 mg/kg/injection, schedule: Q01DX Z (ip), vehicle: carboxymethylcellulose (CMC) 103 % of control and 104 % of control | dose: 120.0 mg/kg/injection, schedule: Q01DX Z (oral), vehicle: carboxymethylcellulose (CMC) 104 % of control | dose: 240.0 mg/kg/injection, schedule: Q01DX Z (ip), vehicle: carboxymethylcellulose (CMC) 100 % of control | dose: 240.0 mg/kg/injection, schedule: Q01DX Z (oral), vehicle: carboxymethylcellulose (CMC) 104 % of control | dose: 480.0 mg/kg/injection, schedule: Q01DX Z (oral), vehicle: carboxymethylcellulose (CMC) 102 % of control | dose: 960.0 mg/kg/injection, schedule: Q01DX Z (oral), vehicle: carboxymethylcellulose (CMC) 104 % of control

C=CCNC(=O)Nc1cccc(OC(=O)NC(C)(C)C)c1
inactive: [13] 94 % of control | [14] 94 % of control | [15] 94 % of control

CC1CCCC(Oc2nc3c(c(=O)n(C)c(=O)n3C)n2C)C1 (stereo not drawn)
inactive: [12] 93 % of control | [2] 93 % of control | [5] 88 % of control | [8] 95 % of control

O=C(c1ccc(C(=O)N(C2CCCCC2)C2CCCCC2)cc1)N(C1CCCCC1)C1CCCCC1
inactive: dose: 5.0 mg/kg/injection, schedule: Q01DX001 (ip), vehicle: saline 105 % of control | dose: 10.0 mg/kg/injection, schedule: Q01DX001 (ip), vehicle: saline 109 % of control | dose: 20.0 mg/kg/injection, schedule: Q01DX001 (ip), vehicle: saline 103 % of control | dose: 40.0 mg/kg/injection, schedule: Q01DX001 (ip), vehicle: saline 101 % of control | dose: 80.0 mg/kg/injection, schedule: Q01DX001 (ip), vehicle: saline 100 % of control

COC(=O)C1C2OC(C(Br)C2Br)C1C(=O)O (stereo not drawn)
inactive: [13] 100 % of control | [14] 98 % of control | [15] 96 % of control

NNc1nncc(=O)[nH]1
inactive: dose: 100.0 mg/kg/injection, schedule: Q01DX001 (ip), vehicle: saline with Tween-80 103 % of control | dose: 200.0 mg/kg/injection, schedule: Q01DX001 (ip), vehicle: saline with Tween-80 103 % of control
